Laboratory results: article PMC6389950, “Small Peptide Ligands for Targeting EGFR in Triple Negative Breast Cancer Cells” (Scientific Reports, 2019)
One block for each molecule: values may come before it. Where a SMILES comes first, the peptide text is derived from it. The star is where a group is joined. FITC = O=C1OC2(c3ccc(O)cc3Oc3cc(O)ccc32)c2ccc(NC(=S)*)cc21; βAla = NCCC(=O)O

Assays:
[1] = Peptide stability in human serum; format: in vitro ADME; conditions: preliminary results, data not shown
MDA-MB-468 [2] = test: In vitro cellular uptake of FITC-labeled peptides by FACS; format: cell-based; conditions: 30 min, 37 °C; for Mean Fluorescence Intensity ± SD MDA-MB-468: soluble FITC-β-alanine-labeled peptide 1 µM, FBS free media, 10^5 or 10^6 cells/well, MFI of FITC positive cells, three independent experiments ± SD
Text: (§1) Flow cytometry was employed to determine the cellular uptake of selected six peptides (1, 4, 22, 23, 26, and 27). As opposed to the membrane bound (conjugated) peptide in library screening, the peptides used here were soluble (or free) FITC-labeled peptides. Peptides were labeled with FITC in the N-terminal and a β-alanine residue was used as a spacer between the FITC and the peptide sequence. The same three TNBC cells lines (MDA-MB-468, MDA-MB-231 and MDA-MB-436) used for peptide array screening were used here as well. Peptides 1 and 4 were used as controls. […] Peptide 4 was included in this experiment to compare the uptake of this keratin 1 binding peptide with the EGFR binding peptides. Peptides 22, 23, 26, and 27 were identified as the best EGFR binding peptides from the library screening.
(§2) Fluorescence-activated cell-sorting (FACS) analysis was used to check the uptake of the FITC-peptides. The stock solution for the FITC-peptides (100 μM) was prepared by dissolving the peptides in sterile water/10% DMSO. MDA-MB-231, MDA-MB-468 and MDA-MB-436 cells were seeded in 6-well plates with 10^6/10^5 cells/well containing 3 mL media and the plates were incubated at 37 °C overnight. The following day, the media was replaced with fresh FBS free media (1 mL) containing FITC-labeled peptide (1 µM), and further incubated at 37 °C for 30 min. Thereafter the media was removed and the cells were washed with cold PBS to remove any remaining peptide. Adequate trypsin was added to each well followed by 3–5 min incubation at 37 °C. Trypsin was immediately neutralized by adding media and the cell suspension was transferred into centrifuge tubes. The cells were separated and washed twice with FACS sheath fluid. The control cells were treated similarly but without peptide. Two wells were assigned for each peptide and each well sample was read twice in FACS machine. The experiment was repeated once. MFI represents the average of all wells for each peptide.

MDA-MB-231 [3] = test: as above; format: cell-based; conditions: 30 min, 37 °C; for Mean Fluorescence Intensity ± SD MDA-MB-231: soluble FITC-β-alanine-labeled peptide 1 µM, FBS free media, 10^5 or 10^6 cells/well, MFI of FITC positive cells, three independent experiments ± SD
Text: as §1, §2

MDA-MB-436 [4] = test: as above; format: cell-based; conditions: soluble FITC-β-alanine-labeled peptide 1 µM, 30 min, 37 °C, FBS free media, 10^5 or 10^6 cells/well, MFI of FITC positive cells, three independent experiments ± SD
Text: as §1, §2

MCF-10A = test: Peptide array-whole cell binding assay; format: cell-based; conditions: non-tumorigenic cells; peptide conjugated to cellulose membrane (amino-PEG500); cells 75 × 10^3 cells/mL, 37 °C, 4 h; CyQUANT fluorescence relative to peptide 1; spots in duplicate
Text: (§3) Peptide array on the cellulose membrane was used to evaluate the binding of each peptide to different cell lines. The amino functionalized cellulose membrane provided by Intavis is acid hardened providing high stability at pH range from 1–14, permitting its use in acidic or basic conditions while maintaining membrane integrity. The PEG linker on membrane surface functions as a hydrophilic spacer between the peptide and the solid surface (membrane) reducing background signal. Cell lines were carefully selected for screening peptides as our goal here is to screen peptides with high binding/uptake by the TNBC cells. […] EGFR is overexpressed by a number of TNBC cells such as MDA-MB-468 (obtained from primary tumor source) and MDA-MB-231 (from metastasis cancer tissue)[13],[14]. While other TNBC cells like MDA-MB-436 (obtained from metastasis cancer tissue) are known to express low levels of EGFR. Non-tumorigenic epithelial MCF10A and MCF12A cells derived from the breast tissue also express low levels of EGFR[14],[34]. We selected two TNBC cell lines with relatively high expression of EGFR expression (MDA-MB-468/231) and a TNBC cell line with low level of EGFR expression (MDA-MB-436) for the peptide array screening experiments. In addition, non- tumorigenic cell line, MCF-10A was used for comparison. These four cell lines were allowed to bind the membrane by seeding the cells on the membrane and the bound cells were labeled with a fluorescent dye CyQUANT.
(§4) For the binding assay, the peptide array was incubated with the cells in sequential steps as described previously. Briefly peptide array membrane was dipped in ethanol for 30 s to remove any precipitation on it, followed by dipping in sterile PBS (pH 7.4) for another 30 min. The cells (75 × 10^3 cells/mL) were seeded directly on the membrane in a sterile plate and incubated at 37 °C for 4 h. The unbound cells were washed out with sterile PBS (pH 7.4). Thereafter the membrane was placed in a sealed bag and transferred to −80 °C freezer for 2 h. Subsequently it was defrosted at room temperature and treated with CyQUANT solution. The CyQUANT concentration was optimized based on the manufacturer’s protocol and preliminary experiments. Membrane was incubated at 37 °C for 30 min with the dye. After washing with sterile PBS and air drying using blow dryer, the membrane was scanned using Bio-rad chemidoc imager with image lab software. The settings were adjusted based on the excitation (465 nm) and emission (535 nm) wavelengths of CyQUANT dye. Epi Blue was selected for the light source (455–485 nm) and filter number 4 (blue filter, 518–546 nm) was employed. The fluorescence intensity of cancer cells read using chemidoc imager was normalized using the non-cancer cell fluorescence intensity. Eventually relative fluorescence was assessed to select peptides with high affinity to cancer cells and low or minimal binding to normal cells.

MDA-MB-468 [5] = test: Peptide array-whole cell binding assay; format: cell-based; conditions: peptide conjugated to cellulose membrane (amino-PEG500), no free C-terminus; cells 75 × 10^3 cells/mL, 37 °C, 4 h; CyQUANT fluorescence relative to peptide 1; spots in duplicate
Text: as §3, §4

MDA-MB-231 [6] = test: Peptide array-whole cell binding assay; format: cell-based; conditions: peptide conjugated to cellulose membrane (amino-PEG500), no free C-terminus; cells 75 × 10^3 cells/mL, 37 °C, 4 h; CyQUANT fluorescence relative to peptide 1; spots in duplicate
Text: as §3, §4

MDA-MB-436 [7] = test: Peptide array-whole cell binding assay; format: cell-based; conditions: peptide conjugated to cellulose membrane (amino-PEG500), no free C-terminus; cells 75 × 10^3 cells/mL, 37 °C, 4 h; CyQUANT fluorescence relative to peptide 1; spots in duplicate
Text: as §3, §4

EGFR on MDA-MB-231 cells = target: T1, EGFR on MDA-MB-231 cells (Homo sapiens, UniProt P00533); test: Competitive uptake by FACS with excess EGF protein or unlabeled peptide 1; format: cell-based; conditions: MDA-MB-231 cells (10^5), FITC-peptide 1 μM, 30 min
T1 construct: host or cells: MDA-MB-231
Experimental: The specific uptake of peptides 1 and 22 was evaluated using a competitive assay. First, MDA-MB-231 cells were incubated with peptide FITC-1 in the presence and absence of excess EGF protein (20-fold). […] The competition experiment was also repeated with peptide 22 in the presence and absence of EGF protein.
In addition, MDA-MB-231 cells (10^5) were incubated with varying concentration of peptide FITC-22 (0–6 μM). The resulting samples were treated as above, and the experiment was repeated. The fluorescence intensity of the FITC peptide-cell complex was plotted against peptide concentration. […] Control group was treated with media alone containing ~5% DMSO. Each group was done in duplicate and the experiment was repeated once.

[8] = cited from earlier work
Text: (§5) We found a region in EGF that may have structural similarity to peptide 22 (Fig. 4b). There is low sequence homology between the two sequences (peptide 22 and 12-residue region of EGF), however, based on the pr ...

breast cancer cells = conditions: compared to linear peptide 18–4; cited from earlier work
Text: as §5

[9] = target: T2, epidermal growth factor receptor (EGFR or ErbB1) (human (endogenous in MDA-MB-468, …, UniProt P00533 25-1210)); test: flow cytometry on cells; competition: MDA-MB-231 cells (10^5); EGF (20 µM, 20-fold excess) or unlabeled peptide 1 (100 µM, 100-fold excess) added first, then FITC-labelled peptide 1 or 22 (1 µM), 30 min; conditions: one partner purified
T2 construct: epidermal growth factor receptor, endogenous on human breast cell lines; expression levels are cited, not measured here; no isolated EGFR was used

[10] = soluble FITC-labeled peptide 1 µM

Molecule: Peptide 1: previously reported EGFR targeting dodecapeptide GE11 (YHWYGYTPQNVI), lead peptide [reference compound]
- Stability in the presence of human serum (in words) [1]: short half-life
- Mean Fluorescence Intensity ± SD MDA-MB-468 (MDA-MB-468 [2]): 68 ± 45
- Mean Fluorescence Intensity ± SD MDA-MB-231 (MDA-MB-231 [3]): 42 ± 8
- Mean Fluorescence Intensity ± SD MDA-MB-436 (MDA-MB-436 [4]): 105 ± 11

Molecule: cyclic WXEAAYQkFL (head to tail) [N- to C terminal cyclized analogue of breast cancer targeting peptide 18–4, k is D-lysine]
- Stability toward proteolytic degradation (in words) [8]: stable toward proteolytic degradation
- Uptake by the breast cancer cells compared to the linear peptide (in words) (breast cancer cells): higher uptake

The next lines start with results.

- Stability in the presence of human serum (in words) [1]: short half-life
- FITC positive cells, no competitor (EGFR on MDA-MB-231 cells; rounded value): 99%
- Decrease in fluorescence / FITC positive cells in the presence of 20-fold excess EGF protein (EGFR on MDA-MB-231 cells; EGF 20 μM): 97%
- FITC positive cells in the presence of 20-fold excess EGF protein (EGFR on MDA-MB-231 cells; EGF 20 μM, rounded value): 2%
Molecule: CC[C@H](C)[C@H](NC(=O)[C@@H](NC(=O)[C@H](CC(N)=O)NC(=O)[C@H](CCC(=O)O)NC(=O)[C@@H]1CCCN1C(=O)[C@@H](NC(=O)[C@H](Cc1ccc(O)cc1)NC(=O)CNC(=O)[C@H](Cc1ccc(O)cc1)NC(=O)[C@H](Cc1c[nH]c2ccccc12)NC(=O)[C@H](Cc1c[nH]cn1)NC(=O)[C@@H](N)Cc1ccc(O)cc1)[C@@H](C)O)C(C)C)C(=O)O [Peptide 22] (H-YHWYGYTPENVI-OH)
- Uptake compared to peptide 1, MDA-MB-468 (MDA-MB-468 [2]; [10]): 123 fold
- Mean Fluorescence Intensity ± SD MDA-MB-468 (MDA-MB-468 [2]): 8384 ± 735
- Uptake compared to peptide 1, MDA-MB-231 (MDA-MB-231 [3]; [10]): 47 fold
- Mean Fluorescence Intensity ± SD MDA-MB-231 (MDA-MB-231 [3]): 1978 ± 522
- Mean Fluorescence Intensity ± SD MDA-MB-436 (MDA-MB-436 [4]): 41 ± 27
- Relative Cell Adhesion MCF-10A (MCF-10A): 1.2
- Relative Cell Adhesion MDA-MB-468 (MDA-MB-468 [5]): 1.6
- Relative Cell Adhesion MDA-MB-231 (MDA-MB-231 [6]): 2.6
- Relative Cell Adhesion MDA-MB-436 (MDA-MB-436 [7]): 1.3

- Decrease in fluorescence in the presence of 100-fold excess unlabeled peptide 1 (EGFR on MDA-MB-231 cells; unlabeled peptide 1 100 μM): 19.5%
Molecule: FITC-AβYHWYGYTPQNVI [FITC-1, reference compound]

- percent FITC positive cells, with 20-fold excess EGF [9]: 2%
B1: FITC-labeled soluble peptide 22 (peptide)
peptide: {FITC-βAla}-YHWYGYTPENVI-OH
notes: GE11 analogue, Q9E; also called peptide FITC-22; FITC-22; source: synthetic peptide (Fmoc-SPPS, RP-HPLC purified)
